Measured values taken from ChEMBL document CHEMBL3885881, “DrugMatrix”.

Species: Rattus norvegicus
Assay: DrugMatrix - Regimen: Daily Repeat
Assay type: toxicity, organism-based, Sprague-Dawley
Design: regimen Daily Repeat, gender Male, age 6-8 weeks
Settings: in vivo, po, route oral GAVAGE, vehicle .5 % CMC; for ABSOLUTE BASOPHIL / ABSOLUTE EOSINOPHIL / ABSOLUTE LYMPHOCYTE / ABSOLUTE MONOCYTE / ABSOLUTE SEGMENTED NEUTROPHIL / BASOPHIL / EOSINOPHIL / ERYTHROCYTE COUNT / HEMATOCRIT / HEMOGLOBIN / LEUKOCYTE COUNT / LYMPHOCYTE / MEAN CORPUSCULAR HEMOGLOBIN / MEAN CORPUSCULAR HEMOGLOBIN CONCENTRATION / MONOCYTE / NEUTROPHIL / NUCLEATED RED BLOOD CELLS / PLATELET COUNT: tissue Blood; for ALANINE AMINOTRANSFERASE / ALBUMIN / ALKALINE PHOSPHATASE / ASPARTATE AMINOTRANSFERASE / BLOOD UREA NITROGEN / CARBON DIOXIDE / CHLORIDE / CHOLESTEROL / CREATINE PHOSPHOKINASE / CREATININE / GLUCOSE / LACTATE DEHYDROGENASE / LIPASE / PHOSPHORUS / POTASSIUM / SODIUM / TOTAL BILIRUBIN / TOTAL PROTEIN / URIC ACID: tissue Plasma
[1] = 0 mg/kg, 72 h, dose level Control, time 3 day
[2] = 0 mg/kg, 120 h, dose level Control, time 5 day
[3] = 1100 mg/kg, 72 h, dose level High, time 3 day
[4] = 1100 mg/kg, 120 h, dose level High, time 5 day

Compound: C[C@H]1[C@H](NC(=O)/C(=N\OC(C)(C)C(=O)O)c2csc(N)n2)C(=O)N1S(=O)(=O)O [AZTREONAM]
- ABSOLUTE BASOPHIL [1]: 0 CELLS/uL
- ABSOLUTE EOSINOPHIL [1]: 222.83 CELLS/uL
- ABSOLUTE LYMPHOCYTE [1]: 14453 CELLS/uL
- ABSOLUTE MONOCYTE [1]: 0 CELLS/uL
- ABSOLUTE SEGMENTED NEUTROPHIL [1]: 1490.83 CELLS/uL
- BASOPHIL [1]: 0%
- EOSINOPHIL [1]: 1.33%
- ERYTHROCYTE COUNT [1]: 5.76 x10E6/uL
- HEMATOCRIT [1]: 36.52%
- HEMOGLOBIN [1]: 13.45 G/DL
- LEUKOCYTE COUNT [1]: 16.17 x10E3/uL
- LYMPHOCYTE [1]: 89.33%
- MEAN CORPUSCULAR HEMOGLOBIN [1]: 23.37 pg
- MEAN CORPUSCULAR HEMOGLOBIN CONCENTRATION [1]: 36.85 G/DL
- MONOCYTE [1]: 0%
- NEUTROPHIL [1]: 9.33%
- NUCLEATED RED BLOOD CELLS [1]: 0 /100WBC
- PLATELET COUNT [1]: 1239.5 x10E3/uL
- ALANINE AMINOTRANSFERASE [1]: 43.83 u/L
- ALBUMIN [1]: 4.27 G/DL
- ALKALINE PHOSPHATASE [1]: 398.83 u/L
- ASPARTATE AMINOTRANSFERASE [1]: 81.17 u/L
- BLOOD UREA NITROGEN [1]: 17.67 mg/dL
- CARBON DIOXIDE [1]: 27.5 mmol/L
- CHLORIDE [1]: 99.17 MEQ/L
- CHOLESTEROL [1]: 74 mg/dL
- CREATINE PHOSPHOKINASE [1]: 331.5 u/L
- CREATININE [1]: 0.2 mg/dL
- GLUCOSE [1]: 171.33 mg/dL
- LACTATE DEHYDROGENASE [1]: 241.67 u/L
- LIPASE [1]: 9.5 u/L
- PHOSPHORUS [1]: 12.25 mg/dL
- POTASSIUM [1]: 6.33 MEQ/L
- SODIUM [1]: 141.28 MEQ/L
- TOTAL BILIRUBIN [1]: 0.15 mg/dL
- TOTAL PROTEIN [1]: 5.98 G/DL
- URIC ACID [1]: 1.63 mg/dL
- ABSOLUTE BASOPHIL [2]: 0 CELLS/uL
- ABSOLUTE EOSINOPHIL [2]: 148.67 CELLS/uL
- ABSOLUTE LYMPHOCYTE [2]: 16020.5 CELLS/uL
- ABSOLUTE MONOCYTE [2]: 29.17 CELLS/uL
- ABSOLUTE SEGMENTED NEUTROPHIL [2]: 1468.33 CELLS/uL
- BASOPHIL [2]: 0%
- EOSINOPHIL [2]: 1%
- ERYTHROCYTE COUNT [2]: 5.78 x10E6/uL
- HEMATOCRIT [2]: 35.77%
- HEMOGLOBIN [2]: 13.4 G/DL
- LEUKOCYTE COUNT [2]: 17.67 x10E3/uL
- LYMPHOCYTE [2]: 90.5%
- MEAN CORPUSCULAR HEMOGLOBIN [2]: 23.22 pg
- MEAN CORPUSCULAR HEMOGLOBIN CONCENTRATION [2]: 37.47 G/DL
- MONOCYTE [2]: 0.17%
- NEUTROPHIL [2]: 8.33%
- NUCLEATED RED BLOOD CELLS [2]: 0.17 /100WBC
- PLATELET COUNT [2]: 1255.5 x10E3/uL
- ALANINE AMINOTRANSFERASE [2]: 46.5 u/L
- ALBUMIN [2]: 4.38 G/DL
- ALKALINE PHOSPHATASE [2]: 336 u/L
- ASPARTATE AMINOTRANSFERASE [2]: 76.5 u/L
- BLOOD UREA NITROGEN [2]: 20 mg/dL
- CARBON DIOXIDE [2]: 27.5 mmol/L
- CHLORIDE [2]: 101 MEQ/L
- CHOLESTEROL [2]: 71.33 mg/dL
- CREATINE PHOSPHOKINASE [2]: 231.83 u/L
- CREATININE [2]: 0.37 mg/dL
- GLUCOSE [2]: 168.83 mg/dL
- LACTATE DEHYDROGENASE [2]: 174 u/L
- LIPASE [2]: 8.67 u/L
- PHOSPHORUS [2]: 11.48 mg/dL
- POTASSIUM [2]: 6.82 MEQ/L
- SODIUM [2]: 143.8 MEQ/L
- TOTAL BILIRUBIN [2]: 0.2 mg/dL
- TOTAL PROTEIN [2]: 5.98 G/DL
- URIC ACID [2]: 1.83 mg/dL
- ABSOLUTE BASOPHIL [3]: 0 CELLS/uL
- ABSOLUTE EOSINOPHIL [3]: 113.67 CELLS/uL
- ABSOLUTE LYMPHOCYTE [3]: 10636 CELLS/uL
- ABSOLUTE MONOCYTE [3]: 74.67 CELLS/uL
- ABSOLUTE SEGMENTED NEUTROPHIL [3]: 842.33 CELLS/uL
- BASOPHIL [3]: 0%
- EOSINOPHIL [3]: 1%
- ERYTHROCYTE COUNT [3]: 5.33 x10E6/uL
- HEMATOCRIT [3]: 34.77%
- HEMOGLOBIN [3]: 12.97 G/DL
- LEUKOCYTE COUNT [3]: 11.67 x10E3/uL
- LYMPHOCYTE [3]: 91%
- MEAN CORPUSCULAR HEMOGLOBIN [3]: 24.4 pg
- MEAN CORPUSCULAR HEMOGLOBIN CONCENTRATION [3]: 37.3 G/DL
- MONOCYTE [3]: 0.67%
- NEUTROPHIL [3]: 7.33%
- NUCLEATED RED BLOOD CELLS [3]: 0 /100WBC
- PLATELET COUNT [3]: 1394 x10E3/uL
- ALANINE AMINOTRANSFERASE [3]: 52 u/L
- ALBUMIN [3]: 4.03 G/DL
- ALKALINE PHOSPHATASE [3]: 364.67 u/L
- ASPARTATE AMINOTRANSFERASE [3]: 79 u/L
- BLOOD UREA NITROGEN [3]: 16.33 mg/dL
- CARBON DIOXIDE [3]: 27 mmol/L
- CHLORIDE [3]: 100.33 MEQ/L
- CHOLESTEROL [3]: 72 mg/dL
- CREATINE PHOSPHOKINASE [3]: 274.33 u/L
- CREATININE [3]: 0.18 mg/dL
- GLUCOSE [3]: 167.67 mg/dL
- LACTATE DEHYDROGENASE [3]: 74.33 u/L
- LIPASE [3]: 8.67 u/L
- PHOSPHORUS [3]: 11.13 mg/dL
- POTASSIUM [3]: 5.8 MEQ/L
- SODIUM [3]: 142.4 MEQ/L
- TOTAL BILIRUBIN [3]: 0.17 mg/dL
- TOTAL PROTEIN [3]: 5.53 G/DL
- URIC ACID [3]: 1.6 mg/dL
- ABSOLUTE BASOPHIL [4]: 0 CELLS/uL
- ABSOLUTE EOSINOPHIL [4]: 309 CELLS/uL
- ABSOLUTE LYMPHOCYTE [4]: 13777 CELLS/uL
- ABSOLUTE MONOCYTE [4]: 0 CELLS/uL
- ABSOLUTE SEGMENTED NEUTROPHIL [4]: 1914 CELLS/uL
- BASOPHIL [4]: 0%
- EOSINOPHIL [4]: 1.67%
- ERYTHROCYTE COUNT [4]: 5.78 x10E6/uL
- HEMATOCRIT [4]: 35.83%
- HEMOGLOBIN [4]: 13.5 G/DL
- LEUKOCYTE COUNT [4]: 16 x10E3/uL
- LYMPHOCYTE [4]: 87%
- MEAN CORPUSCULAR HEMOGLOBIN [4]: 23.37 pg
- MEAN CORPUSCULAR HEMOGLOBIN CONCENTRATION [4]: 37.7 G/DL
- MONOCYTE [4]: 0%
- NEUTROPHIL [4]: 11.33%
- NUCLEATED RED BLOOD CELLS [4]: 0.33 /100WBC
- PLATELET COUNT [4]: 1184.33 x10E3/uL
- ALANINE AMINOTRANSFERASE [4]: 47.67 u/L
- ALBUMIN [4]: 4.5 G/DL
- ALKALINE PHOSPHATASE [4]: 346 u/L
- ASPARTATE AMINOTRANSFERASE [4]: 72 u/L
- BLOOD UREA NITROGEN [4]: 16 mg/dL
- CARBON DIOXIDE [4]: 27 mmol/L
- CHLORIDE [4]: 102.33 MEQ/L
- CHOLESTEROL [4]: 65 mg/dL
- CREATINE PHOSPHOKINASE [4]: 183.33 u/L
- CREATININE [4]: 0.2 mg/dL
- GLUCOSE [4]: 176.67 mg/dL
- LACTATE DEHYDROGENASE [4]: 90 u/L
- LIPASE [4]: 9.33 u/L
- PHOSPHORUS [4]: 11.4 mg/dL
- POTASSIUM [4]: 6.11 MEQ/L
- SODIUM [4]: 146.47 MEQ/L
- TOTAL BILIRUBIN [4]: 0.13 mg/dL
- TOTAL PROTEIN [4]: 6 G/DL
- URIC ACID [4]: 1.7 mg/dL
